According to patent US20040028752A1, “Topical pharmaceutical composition comprising a cholinergic agent or a calcium channel blocker” (S.L.A. Pharma AG., priority 2002, published 2004):
Like-named read-outs stand apart in the source and are kept apart here. Each block holds one molecule with its values, some of them ahead of it.

What was measured:
[1] = test system: maximum resting pressures in the anal canal; settings: after 1 hour, patients with anal fissures; cited from earlier work
[2] = test system: resting anal sphincter pressure; assay: Bethanechol dose ranging study in healthy volunteers; assay type: in vivo, human
Description: Bethanechol cream at concentrations of 0.05%, 0.1%, 0.5% and 1% w/w bethanechol were made up in accordance with example 1. The compositions were studied following initial experimentation in an open way to determine a clinically effective dose range. […] Maximal effect was produced by application of 0.1% bethanechol and higher concentrations of the cream produced no additional effect. At 0.1% w/w bethanechol, the mean resting pressure was reduced from about 110 cm to about 85 cm H2O (about 25% decrease). A typical ‘one inch’ application of this cream from the tube is equivalent to 400 mcg of bethanechol.

chronic anal fissures [3] = assay: Open study of bethanechol cream in patients with chronic anal fissures; assay type: in vivo, human; settings: 0.1% cream three times daily
Description: The 0.1% bethanechol cream of example 3 was applied to the anus three times daily for an eight week course to treat patients suffering from chronic anal fissures (in an uncontrolled, open, pilot study). To date, 6 patients have been treated and followed up for 3 to 5 weeks. Four patients have had complete resolution of symptoms, of whom 3 have complete and 1 partial healing of the fissure. In all of these 4 patients there has been a reduction of the maximum resting anal sphincter pressure to within normal limits. One patient discovered they were pregnant and treatment was discontinued. The last patient has had no relief and remains symptomatic after 4 weeks' follow up.

[4] = test system: internal anal resting pressure; settings: topical use; cited from earlier work
[5] = test system: resting anal sphincter pressure; assay: Diltiazem dose ranging study on healthy volunteers, eight channel water perfused manometer; assay type: in vivo, human
Description: Concentrations of diltiazem cream used were 0.1%, 0.5%, 1%, 2%, 5% and 10%. […] The maximal effect, at which the mean resting anal pressure was lowered by 28% (P<0.0001), was produced by 2% w/w cream (See FIG. 1).

chronic anal fissures [6] = assay: Open study of diltiazem cream in patients with anal fissures; assay type: in vivo, human
Description: 2% diltiazem cream from example 2 was applied to the anus three times daily for 8 weeks to treat patients suffering from chronic anal fissures (in an uncontrolled, open, pilot study). To date, 7 patients were studied and followed up between 2 to 5 weeks. 5 patients have had complete resolution of symptoms, of whom 3 have complete and 2 partial healing of the fissure. In four of these 5 patients there has been a reduction of the maximum resting anal sphincter pressure to within normal limits. The last patient, though symptom free, continues to have a high anal resting pressure.
2 patients have only had two weeks of treatment and one is symptom free after this short period, whilst the other still has occasional pain. It is too early to comment on healing of fissures in these two patients.

[7] = test system: internal anal resting pressure; settings: given orally at 60 mg; cited from earlier work
[8] = test system: mean anal resting pressure; assay: Study of example 4 repeated using oral diltiazem
[9] = among the four patients with complete resolution of symptoms
[10] = 2% cream three times daily, among the 5 patients with complete resolution of symptoms

SMILES: O=C(NC1CCN(CCc2c[nH]c3ccccc23)CC1)c1ccccc1 [indoramin]
reduction of maximum resting pressures in the anal canal [1]: 35.8%

SMILES: CC(C[N+](C)(C)C)OC(N)=O (centres unmarked) [bethanechol]
decrease of mean resting pressure ([2]; 0.1% w/w bethanechol topical, healthy volunteers): about 25% | mean resting pressure after application ([2]; 0.1% w/w bethanechol topical, healthy volunteers, reduced from about 110 cm): about 85 cm H2O | effect on resting anal sphincter pressure ([2]; topical 0.05%, 0.1%, 0.5% and 1% w/w): dose dependent reduction | effect of a single application sustained from ([2]; topical bethanechol, healthy volunteers (FIG. 4: 0.1% w/w gel)): 3 to 5 h | concentration producing the maximal effect on resting anal sphincter pressure ([2]; topical, 0.05%, 0.1%, 0.5% and 1% w/w tested, higher concentrations no additional effect): 0.1% | patients with complete resolution of symptoms (chronic anal fissures [3]; 6 patients treated, follow up 3 to 5 weeks): Four | patients with complete healing of the fissure (chronic anal fissures [3]; [9]): 3 patients | patients with partial healing of the fissure (chronic anal fissures [3]; [9]): 1 patients | patients with reduction of the maximum resting anal sphincter pressure to within normal limits (chronic anal fissures [3]; of the 4 symptom-free patients): 4 patients

SMILES: O=[N+]([O-])OCC(CO[N+](=O)[O-])O[N+](=O)[O-] [glyceryl trinitrate]
effect on internal anal resting pressure [4]: reduces the internal anal resting pressure

patients who noticed postural dizziness ([8]; 60 mg oral twice a day): two
SMILES: COc1ccc([C@@H]2Sc3ccccc3N(CCN(C)C)C(=O)[C@@H]2OC(C)=O)cc1 [diltiazem]
mean resting anal pressure lowered by ([5]; 2% w/w cream, topical to anus, ten healthy volunteers, maximal effect, P<0.0001): 28% | effect on resting anal sphincter pressure ([5]; topical cream 0.1%, 0.5%, 1%, 2%, 5% and 10%): dose dependent reduction | effect of a single application sustained for ([5]; topical diltiazem, healthy volunteers (FIG. 2: 1% w/w gel)): 3 to 5 h | patients with complete resolution of symptoms (chronic anal fissures [6]; 2% cream three times daily, 7 patients studied, follow up 2 to 5 weeks): 5 patients | patients with complete healing of the fissure (chronic anal fissures [6]; [10]): 3 patients | patients with partial healing of the fissure (chronic anal fissures [6]; [10]): 2 patients | patients with reduction of the maximum resting anal sphincter pressure to within normal limits (chronic anal fissures [6]; 2% cream three times daily, of the 5 symptom-free patients): four | patients symptom free after two weeks of treatment (chronic anal fissures [6]; 2% cream, of the 2 patients with only two weeks of treatment): one | effect on internal anal resting pressure [7]: reduce internal anal resting pressure | effect on mean anal resting pressure ([8]; 60 mg oral once a day): no notable effect | mean anal resting pressure reduced by ([8]; 60 mg oral twice a day, P=0.008): 17%
